Results from patent US7186819B2, “Glutamate receptor and utilization thereof” (Ajinomoto Co., Inc., priority 2002, dated 2007).

Legend:
[1] = tested on: oocytes into which cRNA was not injected; experiment: Two-electrode membrane potential fixation measurement of membrane current in oocytes not injected with cRNA; assay type: cell-based, Xenopus; details: data not shown
Experimental: (§1) Female Xenopus (purchased from Watanabe Zoshoku) was bred in a fish tank until oocytes were isolated. The Xenopus was anesthetized with tricain methanesulfonate (MS 222, Sigma) dissolved in deionized water in a concentration of 1 g/L followed by buffering with NaHCO3 (500 mg/L). Anatomy was conducted by hand and oocytes in stages V and VI were recovered from ovary and incubated (for 30 minutes to 1 hour) in a 0.2% collagenase S-1 (Nitta Gelatin) until dissociation took place. After treating with collagenase, the oocytes were washed; follicles were removed; selection was conducted under a microscope; and incubation was carried out at 18° C. for one night.

[2] = target: T1, mGluRTβa (Rattus norvegicus, UniProt P23385); experiment: Two-electrode membrane potential fixation measurement of calcium-dependent chloride current in Xenopus oocytes expressing mGluRTβa; assay type: cell-based; details: medium containing 50 mM, potential fixed at -70 mV, current disappeared on substituting the medium again, FIG. 6
T1 construct: expressed in transfected cells; host or cells: Xenopus oocytes injected with cRNA transcribed from pCRII-TOPO/mGluRTβ
Experimental: (§2) Oocyte-expressing strain of Xenopus was used for analysis of function of mGluR1 mRNA derived from circumvallate papilla of rats.
as §1
(§3) Since the polymerase remains […] in PCR fragments, PCR-amplified mGluRTβa and mGluRTγa template DNA were inserted into pCRII-TOPO vector (Invitrogen) by a TOPO-TA cloning reaction. pCRII-TOPO/mGluRTγ vector and pCRII-TOPO/mGluRTβ vector were made into straight lines using EcoRV and XbaI, respectively, extracted with a mixture of phenol and chloroform and precipitated with ethanol together with sodium acetate. After a sequence analysis, cRNA was prepared using a transcription kit for Sp6 promoter made by Ambion (mMESSAGE mMACHINE kit) binding to pCRII-TOPO promoter.

[3] = target: T2, mGluRTγa (Rattus norvegicus, UniProt P23385); experiment: Two-electrode membrane potential fixation measurement of calcium-dependent chloride current in Xenopus oocytes expressing mGluRTγa; assay type: cell-based; details: potential fixed at -70 mV
T2 construct: expressed in transfected cells; host or cells: Xenopus oocytes injected with cRNA transcribed from pCRII-TOPO/mGluRTγ
Experimental: as §2, §1, §3

[4] = tested on: vagal gastric branch; experiment: Vagal gastric branch afferent nerve activity recording after administration to stomach; assay type: in vivo, rat; details: 150 mM administered to stomach; urethane-anesthetized fasted Wistar rats; FIG. 4
Experimental: Rats (Wistar strain, males, 8 to 10 weeks age; Nippon Charles Liver) were fasted for 18 hours, laparotomy was conducted under anesthetization with urethane (1 g/kg; i.p.) and vagal gastric branch was exfoliated to an extent of about 5 mm. After vagal bundle was cut, it was placed on a small operation stand (8×6 mm), fat and bonded tissues around that were carefully detached and the terminal fiber at the side of organ was placed on a dipole electrode made of platinum for recording and insulated from the surrounding tissues by a mixture of liquid paraffin-vaseline (1:1). […]
Nerve action potential was amplified to an extent of 10,000-fold by a micropotential amplifier (DAM-80 manufactured by WPI); and after noise was reduced by a Vessel filter (4-pole, High Cut 10 Hz, Low Cut 1 KHz), it was subjected to an A/D conversion (Powerlab 4sp, manufactured by ADI Instruments, Inc.) and incorporated into a computer (sampling rate 3 KHz, iBook). At the same time, an amplified signal was separated by a window discriminator (DSE-435 manufactured by Daiya Medical Co., Ltd.) into a noise component and a nerve signal component together with monitoring by an oscilloscope, integrated for 5 seconds by a spike counter (DSE-335P manufactured by Daiya Medical Co., Ltd.) and recorded in a chart recorder (WT-465G manufactured by Nippon Koden Corporation). […]

T1 sequence (P23385 410-1199): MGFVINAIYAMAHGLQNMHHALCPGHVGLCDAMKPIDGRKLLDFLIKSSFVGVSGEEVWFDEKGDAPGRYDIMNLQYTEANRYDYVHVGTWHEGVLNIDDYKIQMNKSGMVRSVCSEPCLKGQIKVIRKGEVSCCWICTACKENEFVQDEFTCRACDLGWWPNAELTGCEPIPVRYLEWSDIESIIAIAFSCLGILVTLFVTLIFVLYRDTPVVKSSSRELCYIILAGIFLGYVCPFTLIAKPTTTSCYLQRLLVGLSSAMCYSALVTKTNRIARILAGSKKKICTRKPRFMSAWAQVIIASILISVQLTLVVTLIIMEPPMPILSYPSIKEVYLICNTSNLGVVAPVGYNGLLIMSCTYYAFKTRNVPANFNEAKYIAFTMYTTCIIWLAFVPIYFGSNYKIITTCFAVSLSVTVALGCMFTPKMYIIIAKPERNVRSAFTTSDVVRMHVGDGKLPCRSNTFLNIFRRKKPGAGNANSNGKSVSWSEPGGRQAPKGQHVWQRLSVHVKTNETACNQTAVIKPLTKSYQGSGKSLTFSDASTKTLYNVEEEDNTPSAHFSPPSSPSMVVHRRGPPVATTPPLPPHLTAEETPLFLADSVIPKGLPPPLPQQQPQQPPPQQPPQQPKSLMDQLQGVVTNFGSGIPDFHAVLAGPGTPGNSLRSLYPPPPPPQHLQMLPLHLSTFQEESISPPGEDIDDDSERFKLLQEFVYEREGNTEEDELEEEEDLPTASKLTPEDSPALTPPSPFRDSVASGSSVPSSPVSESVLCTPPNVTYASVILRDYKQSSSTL
T2 sequence (P23385 410-1199): as above

N[C@@H](CCC(=O)[O-])C(=O)[O-].[Na+].[Na+] [MSG, sodium L-glutamate]
Membrane current (calcium-dependent chloride current) [1]: not observed | Membrane current (calcium-dependent chloride current) [2]: continuous introvert current was induced | Membrane current (calcium-dependent chloride current) [3]: same introvert current was also observed | Centripetal activity of vagal gastric branch [4]: accelerated
